In PMC10259452 (Journal of Medicinal Chemistry, 2023):
Like-named read-outs stand apart in the source and are kept apart here.

Columns and labels:
[1] = mouse, microsomes, pH 7.4
[2] = microsomes
[3] = dog, microsomes, pH 7.4
[4] = human, microsomes, pH 7.4
[5] = rat, microsomes, pH 7.4
human GAL4-RORγ = biological target: T1, human GAL4-RORγ (Homo sapiens, UniProt P51449); assay: human GAL4-RORγ reporter assay; format: cell-based
T1 sequence (P51449 269-508 limits assumed): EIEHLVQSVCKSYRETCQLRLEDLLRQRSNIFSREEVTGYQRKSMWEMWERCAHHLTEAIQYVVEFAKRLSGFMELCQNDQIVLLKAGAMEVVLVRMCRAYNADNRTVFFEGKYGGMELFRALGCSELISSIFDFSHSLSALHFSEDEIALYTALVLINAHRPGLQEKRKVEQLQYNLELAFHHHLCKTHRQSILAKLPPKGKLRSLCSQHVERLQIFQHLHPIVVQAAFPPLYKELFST

[6] = test system: human peripheral blood mononuclear cells (PBMCs)
[7] = pH 7.4

Row | SMILES | microsomal stability Clin [1] | Caco-2 permeability in the A–B direction, grade in words (Caco-2 cells; Caco-2) | recovery in Caco-2 permeability assay (Caco-2 cells; human, Caco-2, pH 7.4) [%] | intrinsic clearance (Clin) grade in words [2] | microsomal stability Clin [3] | microsomal stability Clin [4] | microsomal stability Clin [5] | MDR1-MDCKII permeability in the A–B direction, grade in words (MDR1-MDCKII cells; MDCK-MDR1) | reduction in IL17A+ cells compared to control (in words) [6] | dependence of solubility on pH (in words) [7] | other results
1 | CSc1ncc(Cl)c(C(=O)Nc2sc3c(c2C(=O)NCc2ccccc2)CCCC3)n1 [Compound 2, N-(3-(Benzylcarbamoyl)-4,5,6,7-tetrahydrobenzo[b]thiophen-2-yl)-5-chloro-2-(methylthio) Pyrimidine-4-carboxamide] | 127/126/267/115 μL/min/mg | moderate | < 80 | moderate | 127/126/267/115 μL/min/mg | 127/126/267/115 μL/min/mg | 127/126/267/115 μL/min/mg | moderate | greatest reduction | – | IC50 (human GAL4-RORγ): 750 pM; IL17A secretion from polarized PBMCs compared to the vehicle [6]: decreased; IL21 secretion from polarized PBMCs compared to the vehicle [6]: decreased; cell death / cell viability by flow cytometry [6]: no sign of cell death or decrease in cell viability; reduction in percentage of IL17A+ cells [6]: 40–60%; reduction of percentage of IL17A+ cells, multiple donors [6]: 20–40%; reduction of percentage of IL21+ cells, multiple donors [6]: 20–40%
2 | CSc1ncc(Cl)c(C(=O)Nc2sc3c(c2C(=O)NC2CCS(=O)(=O)C2)CCC(C)C3)n1 (centres unmarked) [Compound 3, 5-Chloro-N-(3-{[(1,1-dioxidotetrahydro-3-thienyl)amino]-carbonyl}-6-methyl-4,5,6,7-tetrahydro-1-benzothien-2-yl)-2-(methylthio)-4-pyrimidine-carboxamide] | 322/36/118/41 μL/min/mg | low permeability | – | moderate | 322/36/118/41 μL/min/mg | 322/36/118/41 μL/min/mg | 322/36/118/41 μL/min/mg | moderate | – | – | active efflux in Caco-2 (Caco-2 cells; Caco-2): active efflux; effect of verapamil on efflux ratio in Caco-2 (Caco-2 cells; Caco-2): decreased partially; stability in acidic pH (in words) [7]: unstable; active efflux / P-gp substrate in MDR1-MDCKII (MDR1-MDCKII cells; MDCK-MDR1): active efflux and are P-gp substrates; effect of cyclosporine A on efflux ratio in MDR1-MDCKII cells (MDR1-MDCKII cells; MDCK-MDR1): completely blocked; IC50 (human GAL4-RORγ): 2190 pM
3 | CCC1CCc2c(sc(NC(=O)c3ccnn3C)c2C(=O)Nc2ccccc2C)C1 (centres unmarked) [Compound 4, N-(6-Ethyl-3-{[(2-methylphenyl)amino]carbonyl}-4,5,6,7-tetrahydro-1-benzothien-2-yl)-1-methyl-1H-pyrazole-5-carboxamide] | 11/22/29/24 μL/min/mg | – | < 80 | – | 11/22/29/24 μL/min/mg | 11/22/29/24 μL/min/mg | 11/22/29/24 μL/min/mg | – | – | not affected | –
4 | CC1CCc2c(sc(NC(=O)c3ccccc3F)c2C(=O)N2CCN(C)CC2)C1 (centres unmarked) [Compound 6, 2-Fluoro-N-{6-methyl-3-[(4-methyl-1-piperazinyl)carbonyl]-4,5,6,7-tetrahydro-1-benzothien-2-yl} Benzamide] | 546/91/116/60 μL/min/mg | – | – | moderate | 546/91/116/60 μL/min/mg | 546/91/116/60 μL/min/mg | 546/91/116/60 μL/min/mg | – | – | inversely proportional | –
5 | O=C(CN1CCCCC1)Nc1sc2c(c1C(=O)NCc1ccccc1)CCCC2 [Compound 9, N-Benzyl-2-[(1-piperidinylacetyl)amino]-4,5,6,7-tetrahydro-1-benzothiophene-3-carboxamide] | – | – | – | – | – | – | – | – | greatest reduction | – | –
6 | CN1CCN(CC(=O)Nc2sc3c(c2C(=O)NCc2ccccc2)CCCC3)CC1 [Compound 10, N-Benzyl-2-{[(4-methyl-1-piperazinyl) Acetyl]amino}-4,5,6,7-tetrahydro-1-benzothiophene-3-carboxamide] | 319/214/115/132 μL/min/mg | moderate | < 80 | moderate | 319/214/115/132 μL/min/mg | 319/214/115/132 μL/min/mg | 319/214/115/132 μL/min/mg | moderate | greatest reduction | – | IC50 (human GAL4-RORγ): 820 pM; IL17A secretion from polarized PBMCs compared to the vehicle [6]: decreased; IL21 secretion from polarized PBMCs compared to the vehicle [6]: decreased; reduction in percentage of IL17A+ cells [6]: 40–60%
7 | CC1CCN(CC(=O)Nc2sc3c(c2C(=O)NCc2ccccc2)CCCC3)CC1 [Compound 11, N-Benzyl-2-{[(4-methyl-1-piperidinyl) Acetyl]amino}-4,5,6,7-tetrahydro-1-benzothiophene-3-carboxamide] | 2345/510/942/260 μL/min/mg | low permeability | < 80 | high | 2345/510/942/260 μL/min/mg | 2345/510/942/260 μL/min/mg | 2345/510/942/260 μL/min/mg | low permeability | – | – | Caco-2 permeability efflux verapamil (Caco-2 cells; human, Caco-2, pH 7.4): 1.2; MDR1-MDCKII permeability efflux cyclosporine A (MDR1-MDCKII cells; dog, MDCK-MDR1, pH 7.4): 0.7
8 | CC1CCCN1C(=O)c1c(NC(=O)c2cccnc2)sc2c1CCCC2 (centres unmarked) [Compound 12, N-(3-(2-Methylpyrrolidine-1-carbonyl)-4,5,6,7-tetrahydro-benzo[b]thiophen-2-yl) Nicotinamide] | 71/67/97/53 μL/min/mg | high permeability | – | – | 71/67/97/53 μL/min/mg | 71/67/97/53 μL/min/mg | 71/67/97/53 μL/min/mg | high | – | – | –
9 | C[C@@H]1CCN(C(=O)c2c(NC(=O)c3cccnc3)sc3c2CCCC3)[C@H](C)C1 [Compound 13, N-(3-((2R,4R)-2,4-Dimethylpiperidine-1-carbonyl)-4,5,6,7-tetrahydrobenzo[b]thiophen-2-yl) Nicotinamide] | 414/404/507/369 μL/min/mg | – | – | moderate | 414/404/507/369 μL/min/mg | 414/404/507/369 μL/min/mg | 414/404/507/369 μL/min/mg | – | greatest reduction | – | IL17A secretion from polarized PBMCs compared to the vehicle [6]: decreased; IL21 secretion from polarized PBMCs compared to the vehicle [6]: decreased; reduction in percentage of IL17A+ cells [6]: 40–60%
10 | Cn1ccnc1SCC(=O)Nc1sc2c(c1C(=O)NCc1ccccc1)CCCC2 [Compound 16, N-Benzyl-2-(2-((1-methyl-1H-imidazole-2-yl)thio)acetamido)-4,5,6,7-tetrahydrobenzo[b]thiophene-3-carboxamide] | 2142/954/887/332 μL/min/mg | – | – | high | 2142/954/887/332 μL/min/mg | 2142/954/887/332 μL/min/mg | 2142/954/887/332 μL/min/mg | – | – | inversely proportional | –
11 | O=C(Nc1sc2c(c1C(=O)N1CCC(CO)C1)CCCC2)c1cccnc1 (centres unmarked) [Compound 17, N-(3-(3-(Hydroxymethyl)pyrrolidine-1-carbonyl)-4,5,6,7-tetrahydrobenzo[b]thiophen-2-yl) Nicotinamide] | 46/23/7/11 μL/min/mg | moderate | – | – | 46/23/7/11 μL/min/mg | 46/23/7/11 μL/min/mg | 46/23/7/11 μL/min/mg | moderate | – | inversely proportional | active efflux in Caco-2 (Caco-2 cells; Caco-2): active efflux; active efflux / P-gp substrate in MDR1-MDCKII (MDR1-MDCKII cells; MDCK-MDR1): active efflux and are P-gp substrates
